Earlier results in patent US20100143460A1, “SOLID DOSAGE FORMS COMPRISING ALISKIREN AND PHARMACEUTICALLY ACCEPTABLE SALTS THEREOF” (KRKA, TOVARNA ZDRAVIL, D.D., NOVO MESTO, priority 2007, published 2010).

Details: described in EP-A-1 517 682

For `COCCCOc1cc(C[C@@H](C[C@H](N)[C@@H](O)C[C@H](C(=O)NCC(C)(C)C(N)=O)C(C)C)C(C)C)ccc1OC` [aliskiren], the solubility in water is given as “very readily soluble in water”.
